Target: T1, DAPK3 (ZIPK) (Homo sapiens, UniProt O43293)
T1 construct: purchased Thermo Fisher Scientific (Life Technologies) SelectScreen
Experiment: SelectScreen Z'LYTE
Format: biochemical
Procedure, shortened: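 SelectScreen broad panel; activity (Z'LYTE, Adapta) plus binding formats. ATP: Km app for CSF1R Z'LYTE; 10 for CAMK1 Adapta. Readout = % per kinase.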

T1 sequence (O43293 whole entry): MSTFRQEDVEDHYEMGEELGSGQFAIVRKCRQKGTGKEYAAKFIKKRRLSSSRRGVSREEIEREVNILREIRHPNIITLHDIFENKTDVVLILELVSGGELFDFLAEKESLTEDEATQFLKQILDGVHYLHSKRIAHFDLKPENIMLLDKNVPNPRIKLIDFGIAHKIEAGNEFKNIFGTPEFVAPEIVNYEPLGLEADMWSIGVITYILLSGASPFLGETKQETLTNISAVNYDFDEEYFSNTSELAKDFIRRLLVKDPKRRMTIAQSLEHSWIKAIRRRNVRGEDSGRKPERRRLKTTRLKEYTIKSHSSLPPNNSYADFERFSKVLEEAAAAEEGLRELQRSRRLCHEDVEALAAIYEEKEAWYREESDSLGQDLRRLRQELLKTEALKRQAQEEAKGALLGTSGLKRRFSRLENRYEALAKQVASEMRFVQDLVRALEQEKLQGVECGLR

Compound: CN(C(=O)CN1CCOCC1)c1ccc2sc3c(-c4cccc5c(=O)cc(N6CC7CCC(C6)O7)oc45)cccc3c2c1 [NU5455]
- inhibition at 1 µM: -3.4%
